# US9708314B2, “Heterocyclic amide compound” (NISSAN CHEMICAL INDUSTRIES, LTD., priority 2013, dated 2017)
# Experiments:
# Assay type in all cases: in vivo
# [1] = test system: directly sowed Oryza sativa; test: Test Example 3: effect on crop by application to foliage (Wagner pot, water depth 0.1-0.5 cm); conditions: Nineteenth Table; application to foliage; application herbicide amount 320 g/ha
# In short: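 Grading uses six bands of herbicidal ratio, from 0 (≤5%, almost no effect) to 5 (≥90%, almost completely withered). Treatment was a stem-and-leaf spray of diluted emulsion at a fixed g/ha on 14-day-old plants; evaluation after three weeks.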
# Chenopodium album = test: Test Example 4: herbicidal effect by application to foliage (diluvial soil, plastic box); conditions: for O: herbicidal effect on Chenopodium album: application to foliage, application herbicide amount 320 g/ha; for O (Chenopodium album) herbicidal effect grade: foliage application
# In short: (§1)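 Read-out is a 0–5 visual grade of herbicidal ratio (5: ≥90%, almost withered; 0: ≤5%) taken three weeks after treatment. Compound was applied as a diluted emulsion to stem and leaf parts of 14-day greenhouse-grown plants (25° C. to 30° C.) at rates expressed as g/ha.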
# Abutilon theophrasti = test: as above; conditions: for M: herbicidal effect on Abutilon theophrasti: application to foliage, application herbicide amount 320 g/ha; for M (Abutilon theophrasti) herbicidal effect grade: foliage application
# In short: as §1
# Apera spica-venti. = test: as above; conditions: for L: herbicidal effect on Apera spica-venti.: application to foliage, application herbicide amount 320 g/ha; for L (Apera spica-venti.) herbicidal effect grade: foliage application
# In short: as §1
# [2] = test system: Echinochloa crus-galli var. crus-galli; test: as above; conditions: for H: herbicidal effect on Echinochloa crus-galli var. crus-galli: application to foliage, application herbicide amount 320 g/ha; for H (Echinochloa crus-galli var. crus-galli) herbicidal effect grade: foliage application
# In short: as §1
# Setaria viridis = test: as above; conditions: for G: herbicidal effect on Setaria viridis: application to foliage, application herbicide amount 320 g/ha; for G (Setaria viridis) herbicidal effect grade: foliage application
# In short: as §1
# Avena fatua = test: as above; conditions: for I: herbicidal effect on Avena fatua: application to foliage, application herbicide amount 320 g/ha; for I (Avena fatua) herbicidal effect grade: foliage application
# In short: as §1
# Galium spurium = test: as above; conditions: for Q: herbicidal effect on Galium spurium: application to foliage, application herbicide amount 320 g/ha; for Q (Galium spurium) herbicidal effect grade: foliage application
# In short: as §1
# Amaranthus retroflexus = test: as above; conditions: for N: herbicidal effect on Amaranthus retroflexus: application to foliage, application herbicide amount 320 g/ha; for N (Amaranthus retroflexus) herbicidal effect grade: foliage application
# In short: as §1
# Stellaria media = test: as above; conditions: for P: herbicidal effect on Stellaria media: application to foliage, application herbicide amount 320 g/ha; for P (Stellaria media) herbicidal effect grade: foliage application
# In short: as §1
# Alopecurus myosuroides = test: as above; conditions: for J: herbicidal effect on Alopecurus myosuroides: application to foliage, application herbicide amount 320 g/ha; for J (Alopecurus myosuroides) herbicidal effect grade: foliage application
# In short: as §1
# Veronica persica = test: as above; conditions: for R: herbicidal effect on Veronica persica: application to foliage, application herbicide amount 320 g/ha; for R (Veronica persica) herbicidal effect grade: foliage application
# In short: as §1
# Lolium multiflorum Lam. = test: as above; conditions: for K: herbicidal effect on Lolium multiflorum Lam.: application to foliage, application herbicide amount 320 g/ha; for K (Lolium multiflorum Lam.) herbicidal effect grade: foliage application
# In short: as §1
# Digitaria ciliaris = test: as above; conditions: for F: herbicidal effect on Digitaria ciliaris: application to foliage, application herbicide amount 320 g/ha; for F (Digitaria ciliaris) herbicidal effect grade: foliage application
# In short: as §1
# [3] = Application herbicide amount 320 g/ha
SMILES,b (effect on crop grade) [1],O: herbicidal effect on Chenopodium album (Chenopodium album),M: herbicidal effect on Abutilon theophrasti (Abutilon theophrasti),L: herbicidal effect on Apera spica-venti. (Apera spica-venti.),H: herbicidal effect on Echinochloa crus-galli var. crus-galli [2],G: herbicidal effect on Setaria viridis (Setaria viridis),I: herbicidal effect on Avena fatua (Avena fatua),Q: herbicidal effect on Galium spurium (Galium spurium),N: herbicidal effect on Amaranthus retroflexus (Amaranthus retroflexus),P: herbicidal effect on Stellaria media (Stellaria media),J: herbicidal effect on Alopecurus myosuroides (Alopecurus myosuroides),R: herbicidal effect on Veronica persica (Veronica persica),K: herbicidal effect on Lolium multiflorum Lam. (Lolium multiflorum Lam.),F: herbicidal effect on Digitaria ciliaris (Digitaria ciliaris),O (Chenopodium album) herbicidal effect grade (Chenopodium album; [3]),M (Abutilon theophrasti) herbicidal effect grade (Abutilon theophrasti; [3]),L (Apera spica-venti.) herbicidal effect grade (Apera spica-venti.; [3]),"H (Echinochloa crus-galli var. crus-galli) herbicidal effect grade [2, 3]",G (Setaria viridis) herbicidal effect grade (Setaria viridis; [3]),I (Avena fatua) herbicidal effect grade (Avena fatua; [3]),other results
CCC(CC)c1nnc2c(C(=O)Nc3nnnn3C)ccc(C(F)(F)F)n12 [2-006],5 (Herbicidal ratio of 90% or more (almost completely withered)),5 (Herbicidal ratio of 90% or more (almost completely withered)),5 (Herbicidal ratio of 90% or more (almost completely withered)),4 (Herbicidal ratio of 70% or more and less than 90%),5 (Herbicidal ratio of 90% or more (almost completely withered)),5 (Herbicidal ratio of 90% or more (almost completely withered)),3 (Herbicidal ratio of 40% or more and less than 70%),3 (Herbicidal ratio of 40% or more and less than 70%),5 (Herbicidal ratio of 90% or more (almost completely withered)),5 (Herbicidal ratio of 90% or more (almost completely withered)),2 (Herbicidal ratio of 20% or more and less than 40%),5 (Herbicidal ratio of 90% or more (almost completely withered)),1 (Herbicidal ratio of 5% or more and less than 20%),5 (Herbicidal ratio of 90% or more (almost completely withered)),,,,,,,
Cc1nnc(NC(=O)c2ccc(C(F)(F)F)n3c(N4CCSCC4)nnc23)o1 [1-118],3 (Herbicidal ratio of 40% or more and less than 70%),,,,,,,,,,,,,,5 (Herbicidal ratio of 90% or more (almost completely withered)),4 (Herbicidal ratio of 70% or more and less than 90%),3 (Herbicidal ratio of 40% or more and less than 70%),5 (Herbicidal ratio of 90% or more (almost completely withered)),5 (Herbicidal ratio of 90% or more (almost completely withered)),3 (Herbicidal ratio of 40% or more and less than 70%),Q (Galium spurium) herbicidal effect grade (Galium spurium; [3]): 4 (Herbicidal ratio of 70% or more and less than 90%); N (Amaranthus retroflexus) herbicidal effect grade (Amaranthus retroflexus; [3]): 4 (Herbicidal ratio of 70% or more and less than 90%); P (Stellaria media) herbicidal effect grade (Stellaria media; [3]): 4 (Herbicidal ratio of 70% or more and less than 90%); J (Alopecurus myosuroides) herbicidal effect grade (Alopecurus myosuroides; [3]): 1 (Herbicidal ratio of 5% or more and less than 20%); R (Veronica persica) herbicidal effect grade (Veronica persica; [3]): 5 (Herbicidal ratio of 90% or more (almost completely withered)); K (Lolium multiflorum Lam.) herbicidal effect grade (Lolium multiflorum Lam.; [3]): 1 (Herbicidal ratio of 5% or more and less than 20%); F (Digitaria ciliaris) herbicidal effect grade (Digitaria ciliaris; [3]): 5 (Herbicidal ratio of 90% or more (almost completely withered))
Cn1nnnc1NC(=O)c1ccc(C(F)(F)F)n2c(C3CC3)nnc12 [2-005],2 (Herbicidal ratio of 20% or more and less than 40%),5 (Herbicidal ratio of 90% or more (almost completely withered)),5 (Herbicidal ratio of 90% or more (almost completely withered)),4 (Herbicidal ratio of 70% or more and less than 90%),5 (Herbicidal ratio of 90% or more (almost completely withered)),4 (Herbicidal ratio of 70% or more and less than 90%),3 (Herbicidal ratio of 40% or more and less than 70%),4 (Herbicidal ratio of 70% or more and less than 90%),5 (Herbicidal ratio of 90% or more (almost completely withered)),5 (Herbicidal ratio of 90% or more (almost completely withered)),3 (Herbicidal ratio of 40% or more and less than 70%),5 (Herbicidal ratio of 90% or more (almost completely withered)),2 (Herbicidal ratio of 20% or more and less than 40%),5 (Herbicidal ratio of 90% or more (almost completely withered)),,,,,,,
CSCc1nnc2c(C(=O)Nc3nnnn3C)ccc(C(F)(F)F)n12 [2-029],5 (Herbicidal ratio of 90% or more (almost completely withered)),,,,,,,,,,,,,,,,,,,,O (Chenopodium album) herbicidal effect grade (Chenopodium album; 320 g/ha): 5 (Herbicidal ratio of 90% or more (almost completely withered)); M (Abutilon theophrasti) herbicidal effect grade (Abutilon theophrasti; 320 g/ha): 5 (Herbicidal ratio of 90% or more (almost completely withered)); L (Apera spica-venti.) herbicidal effect grade (Apera spica-venti.; 320 g/ha): 5 (Herbicidal ratio of 90% or more (almost completely withered)); H (Echinochloa crus-galli var. crus-galli) herbicidal effect grade ([2]; 320 g/ha): 5 (Herbicidal ratio of 90% or more (almost completely withered)); G (Setaria viridis) herbicidal effect grade (Setaria viridis; 320 g/ha): 5 (Herbicidal ratio of 90% or more (almost completely withered)); I (Avena fatua) herbicidal effect grade (Avena fatua; 320 g/ha): 5 (Herbicidal ratio of 90% or more (almost completely withered)); Q (Galium spurium) herbicidal effect grade (Galium spurium; 320 g/ha): 4 (Herbicidal ratio of 70% or more and less than 90%); N (Amaranthus retroflexus) herbicidal effect grade (Amaranthus retroflexus; 320 g/ha): 5 (Herbicidal ratio of 90% or more (almost completely withered)); P (Stellaria media) herbicidal effect grade (Stellaria media; 320 g/ha): 5 (Herbicidal ratio of 90% or more (almost completely withered)); J (Alopecurus myosuroides) herbicidal effect grade (Alopecurus myosuroides; 320 g/ha): 5 (Herbicidal ratio of 90% or more (almost completely withered)); R (Veronica persica) herbicidal effect grade (Veronica persica; 320 g/ha): 5 (Herbicidal ratio of 90% or more (almost completely withered)); K (Lolium multiflorum Lam.) herbicidal effect grade (Lolium multiflorum Lam.; 320 g/ha): 5 (Herbicidal ratio of 90% or more (almost completely withered)); F (Digitaria ciliaris) herbicidal effect grade (Digitaria ciliaris; 320 g/ha): 5 (Herbicidal ratio of 90% or more (almost completely withered))
CCN(CC)c1nnc2c(C(=O)Nc3nnco3)ccc(C(F)(F)F)n12 [1-138],3 (Herbicidal ratio of 40% or more and less than 70%),,,,,,,,,,,,,,5 (Herbicidal ratio of 90% or more (almost completely withered)),3 (Herbicidal ratio of 40% or more and less than 70%),3 (Herbicidal ratio of 40% or more and less than 70%),5 (Herbicidal ratio of 90% or more (almost completely withered)),3 (Herbicidal ratio of 40% or more and less than 70%),2 (Herbicidal ratio of 20% or more and less than 40%),Q (Galium spurium) herbicidal effect grade (Galium spurium; [3]): 2 (Herbicidal ratio of 20% or more and less than 40%); N (Amaranthus retroflexus) herbicidal effect grade (Amaranthus retroflexus; [3]): 4 (Herbicidal ratio of 70% or more and less than 90%); P (Stellaria media) herbicidal effect grade (Stellaria media; [3]): 5 (Herbicidal ratio of 90% or more (almost completely withered)); J (Alopecurus myosuroides) herbicidal effect grade (Alopecurus myosuroides; [3]): 1 (Herbicidal ratio of 5% or more and less than 20%); R (Veronica persica) herbicidal effect grade (Veronica persica; [3]): 5 (Herbicidal ratio of 90% or more (almost completely withered)); K (Lolium multiflorum Lam.) herbicidal effect grade (Lolium multiflorum Lam.; [3]): 1 (Herbicidal ratio of 5% or more and less than 20%); F (Digitaria ciliaris) herbicidal effect grade (Digitaria ciliaris; [3]): 4 (Herbicidal ratio of 70% or more and less than 90%)
